Measurements as given in BindingDB's records for doi:10.1021/jm0301033 (Florida A and M University, 2004).

Assays:
[1] = biological target: T1, D(4) dopamine receptor (Homo sapiens, UniProt P21917); assay: Displacement of [3H]spiperone from human Dopamine receptor D4
T1 sequence (P21917 whole entry): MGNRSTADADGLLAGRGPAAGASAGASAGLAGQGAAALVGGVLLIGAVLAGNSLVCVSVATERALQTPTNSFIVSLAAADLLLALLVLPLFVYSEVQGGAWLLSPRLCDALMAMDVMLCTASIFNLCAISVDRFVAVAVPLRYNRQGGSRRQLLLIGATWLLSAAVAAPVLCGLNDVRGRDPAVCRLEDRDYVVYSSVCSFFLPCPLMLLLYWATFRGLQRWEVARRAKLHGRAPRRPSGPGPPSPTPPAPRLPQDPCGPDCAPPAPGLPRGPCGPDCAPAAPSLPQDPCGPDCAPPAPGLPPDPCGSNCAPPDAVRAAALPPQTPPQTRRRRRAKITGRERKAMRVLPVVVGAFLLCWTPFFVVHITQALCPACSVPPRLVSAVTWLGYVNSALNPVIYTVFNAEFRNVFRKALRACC

[2] = biological target: D(3) dopamine receptor (Homo sapiens, UniProt P35462); assay: Displacement of [3H]7-OH-DPAT from human Dopamine receptor D3
Chain of D(3) dopamine receptor (P35462 as listed by the source): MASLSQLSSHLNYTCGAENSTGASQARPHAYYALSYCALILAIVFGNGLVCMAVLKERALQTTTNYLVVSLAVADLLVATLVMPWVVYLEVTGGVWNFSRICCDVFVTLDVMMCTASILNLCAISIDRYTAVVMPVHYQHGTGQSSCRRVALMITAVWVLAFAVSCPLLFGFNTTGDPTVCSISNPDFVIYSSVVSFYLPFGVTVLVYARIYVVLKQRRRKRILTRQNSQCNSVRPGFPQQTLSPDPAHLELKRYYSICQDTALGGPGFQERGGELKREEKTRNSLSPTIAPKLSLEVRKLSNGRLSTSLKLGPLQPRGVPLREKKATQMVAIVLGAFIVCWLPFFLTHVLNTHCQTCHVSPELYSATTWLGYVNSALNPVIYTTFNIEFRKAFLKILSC

pKi [1] | pKi [2] | SMILES
7.11 | 6.96 | O=C(CCCN1CCC(CO)(c2ccc(Cl)cc2)CC1)c1ccc(F)cc1
6.71 | 7.49 | O=C(CCCN1CCC(CCO)(c2ccc(Cl)cc2)C1)c1ccc(F)cc1 (configuration not stated)
6.91 | 7.11 | O=C(CCCN1CCC(C(O)c2ccc(Cl)cc2)CC1)c1ccc(F)cc1 (configuration not stated)
6.72 | 6.79 | CN(CCCC(=O)c1ccc(F)cc1)CCCC(O)c1ccc(Cl)cc1 (configuration not stated)
7.82 |  | O=C(CCCN1CCC(c2ccc(Cl)cc2)C1)c1ccc(F)cc1 (configuration not stated)
7.62 | 6.78 | O=C(CCCN1CCC(CO)(c2ccc(Cl)cc2)C1)c1ccc(F)cc1 (configuration not stated)
7.23 | 8.05 | O=C(CCCN1CCC(O)(Cc2ccc(Cl)cc2)CC1)c1ccc(F)cc1

SMILES | pKi [1] | pKi [2]
O=C(CCCN1CCC(c2ccc(Cl)cc2)CC1)c1ccc(F)cc1 | 7.59 | 7.34
O=C(CCC[n+]1ccc(-c2ccc(Cl)cc2)cc1)c1ccc(F)cc1 | < 6 | < 6
